According to PMC7612645 (2021):

Test system: US (RNA, single strand) UUUUUACCUAUCUCUUUUUCUCU
Test: SPR
Settings: 250 mM NaCl; 20 mM HEPES pH 7.5, 2% DMSO, 0.1% Tween20, 37 °C; trace shown at 40 nM compound

Structure (SMILES): Cc1nc2nc(CN)nn2c(C)c1CCC(=O)Nc1ccc(F)c(Cl)c1
- binding: no
